Assay results taken from patent US7345067B2, “Aniline derivatives, their manufacture and use as pharmaceutical agents” (Hoffmann-La Roche Inc., priority 2003, dated 2008).

How the values were obtained:
PPARγ = target: T1, PPARγ (Mus musculus, UniProt P37238); experiment: Radioligand binding assay (SPA), PPARγ receptor binding; settings: GST-PPARγ-LBD fusion protein
T1 construct: PPARγ (aa 174 to 476); made in house; host or cells: E. coli BL21 (pLysS)
T1 sequence (P37238 204-505): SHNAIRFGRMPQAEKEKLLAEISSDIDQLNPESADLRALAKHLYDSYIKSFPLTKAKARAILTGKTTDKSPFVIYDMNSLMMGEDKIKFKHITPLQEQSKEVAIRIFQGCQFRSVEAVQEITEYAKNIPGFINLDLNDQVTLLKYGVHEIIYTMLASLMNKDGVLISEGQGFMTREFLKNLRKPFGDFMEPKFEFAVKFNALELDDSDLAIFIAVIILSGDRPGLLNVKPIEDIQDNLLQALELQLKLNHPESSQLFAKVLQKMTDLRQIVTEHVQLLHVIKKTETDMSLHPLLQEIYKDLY
From the text: (§1) Background information on the performed assays can be found in: Nichols J S et al. “Development of a scintillation proximity assay for peroxisome proliferator-activated receptor gamma ligand binding domain”, (1998) Anal. Biochem. 257: 112-119.
(§2) Full-length cDNA clones for humans PPARδ and PPARα and mouse PPARγ were obtained by RT-PCR from human adipose and mouse liver cRNA, respectively, cloned into plasmid vectors and verified by DNA sequencing. Bacterial and mammalian expression vectors were constructed to produce glutathione-s-transferase (GST) and Gal4 DNA binding domain proteins fused to the ligand binding domains (LBD) of PPARδ (aa 139 to 442), PPARγ (aa 174 to 476) and PPARα (aa 167 to 469). To accomplish this, the portions of the cloned sequences encoding the LBDs were amplified from the full-length clones by PCR and then subcloned into the plasmid vectors. Final clones were verified by DNA sequence analysis.
(§3) Induction, expression, and purification of GST-LBD fusion proteins were performed in E. coli strain BL21 (pLysS) cells by standard methods (Ref: Current Protocols in Molecular Biology, Wiley Press, edited by Ausubel et al.).
(§4) PPARγ receptor binding was assayed in TKE50 (50 mM Tris-HCl, pH 8, 50 mM KCl, 2 mM EDTA, 0.1 mg/ml fatty acid-free BSA and 10 mM DTT). For each 96 well reaction an 140 ng equivalent of GST-PPARγ-LBD fusion protein was bound to 10 μg SPA beads (PharmaciaAmersham) in a final volume of 50 ul by shaking. The resulting slurry was incubated for 1 h at RT and centrifuged for 2 min at 1300 g. The supernatant containing unbound protein was removed and the semidry pellet containing the receptor-coated beads was resolved in 50 ul of TKE. For radioligand binding e.g. 10000 dpm 2(S)-(2-benzoyl-phenylamino)-3-{4-[1,1-ditritio-2-(5-methyl-2-phenyl-oxazol-4-yl)-ethoxy]-phenyl}-propionic acid in 50 μl were added, the reaction incubated at RT for 1 h and scintillation proximity counting performed. All binding assays were performed in 96 well plates and the amount of bound ligand measured on a Packard TopCount using OptiPlates (Packard). Nonspecific binding was determined in the presence of 10^−4 M unlabelled compound. Dose response curves were done in triplicates within a range of concentration from 10^−10 M to 10^−4 M.

PPARδ = target: T2, PPARδ (Homo sapiens, UniProt Q03181); experiment: Radioligand binding assay (SPA), PPARδ receptor binding; settings: GST-PPARδ-LBD fusion protein
T2 construct: PPARδ (aa 139 to 442); made in house; host or cells: E. coli BL21 (pLysS)
T2 sequence (Q03181 139-441 limits assumed): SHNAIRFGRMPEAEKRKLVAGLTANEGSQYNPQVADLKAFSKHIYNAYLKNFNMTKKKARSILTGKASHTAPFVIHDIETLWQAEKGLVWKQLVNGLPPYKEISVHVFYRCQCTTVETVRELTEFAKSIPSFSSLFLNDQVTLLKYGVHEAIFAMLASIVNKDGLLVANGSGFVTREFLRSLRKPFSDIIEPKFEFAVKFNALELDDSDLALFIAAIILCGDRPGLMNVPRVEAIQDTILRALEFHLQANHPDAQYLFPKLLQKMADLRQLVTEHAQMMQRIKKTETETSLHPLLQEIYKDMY
From the text: as §1, §2, §3
PPARδ receptor binding was assayed in HNM10 (50 mM Hepes, pH 7.4, 10 mM NaCl, 5 mM MgCl2, 0.15 mg/ml fatty acid-free BSA and 15 mM DTT). For each 96 well reaction a 500 ng equivalent of GST-PPARδ-LBD fusion protein and radioligand, e.g. 20000 dpm {2-methyl-4-[4-methyl-2-(4-trifluoromethyl-phenyl)-thiazol-5-yl-ditritiomethylsulfanyl]-phenoxy}-acetic acid, was bound to 10 μg SPA beads (PharmaciaAmersham) in a final volume of 50 μl by shaking. The resulting slurry was incubated for 1 h at RT and centrifuged for 2 min at 1300 g. The supernatant containing unbound protein was removed and the semidry pellet containing the receptor-coated beads was resuspended in 50 ul of HNM. Radioligand was added and the reaction incubated at RT for 1 h and scintillation proximity counting performed in the presence of test compounds was determined. All binding assays were performed in 96 well plates and the amount of bound ligand was measured on a Packard TopCount using OptiPlates (Packard). Dose response curves were done in triplicates within a range of concentration from 10^−10 M to 10^−4 M.

PPARα = target: T3, PPARα (Homo sapiens, UniProt Q07869); experiment: Radioligand binding assay (SPA), PPARα receptor binding; settings: GST-PPARα-LBD fusion protein
T3 construct: PPARα (aa 167 to 469); made in house; host or cells: E. coli BL21 (pLysS)
T3 sequence (Q07869 167-468 limits assumed): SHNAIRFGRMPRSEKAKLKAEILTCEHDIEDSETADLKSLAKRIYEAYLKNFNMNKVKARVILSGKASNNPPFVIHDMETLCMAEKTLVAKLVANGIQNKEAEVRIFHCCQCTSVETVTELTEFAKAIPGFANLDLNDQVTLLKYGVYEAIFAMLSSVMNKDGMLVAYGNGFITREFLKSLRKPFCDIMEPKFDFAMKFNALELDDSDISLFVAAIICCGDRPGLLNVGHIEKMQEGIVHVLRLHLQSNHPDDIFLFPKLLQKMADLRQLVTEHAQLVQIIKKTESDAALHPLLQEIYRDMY
From the text: as §1, §2, §3
as §4, with “PPARα receptor” for “PPARγ receptor”, “of GST-PPARα-LBD” for “of GST-PPARγ-LBD”, “50 μl” for “50 ul”, “dpm of 2(S)-(2-benzoyl-phenylamino)-3-{4-[1,1-d]tritio-2-(5-methyl-2-phenyl-oxazol-4-yl)-ethoxy]-phenyl}-propionic acid or 2,3-ditritio-2(S)-methoxy-3-{4-[2-(5-methyl-2-phenyl-oxazol-4-yl)-ethoxy]-benzo[b]thiophen-7-yl}-propionic” for “dpm 2(S)-(2-benzoyl-phenylamino)-3-{4-[1,1-ditritio-2-(5-methyl-2-phenyl-oxazol-4-yl)-ethoxy]-phenyl}-propionic”, “50 ul” for “50 μl”

Structure (SMILES)	IC50 (PPARγ) [nM]	IC50 (PPARδ) [nM]	melting point	IC50 (PPARα) [nM]
Cc1nc(-c2ccc(C(F)(F)F)cc2)sc1CN(C)c1ccc(OCC(=O)O)c(C(F)(F)F)c1 [Example 6.8, (4-{Methyl-[4-methyl-2-(4-trifluoromethyl-phenyl)-thiazol-5-ylmethyl]-amino}-2-trifluoromethyl-phenoxy)-acetic acid]	> 10000	16.2	180 to 181 °C	463
COCCCc1cc(N(C)Cc2sc(-c3ccc(C(F)(F)F)cc3)nc2C)ccc1OCC(=O)O [Example 13.10, (2-(3-Methoxy-propyl)-4-{methyl-[4-methyl-2-(4-trifluoromethyl-phenyl)-thiazol-5-ylmethyl]-amino}-phenoxy)-acetic acid]	> 10000	34	142 to 143 °C	3960
Cc1cc(N(C)Cc2oc(-c3ccc(C(F)(F)F)cc3)nc2C)ccc1OCC(=O)O [Example 14, (2-Methyl-4-{methyl-[4-methyl-2-(4-trifluoromethyl-phenyl)-oxazol-5-ylmethyl]-amino}-phenoxy)-acetic acid]			156 to 157 °C	
CCN(Cc1sc(-c2ccc(C(F)(F)F)cc2)nc1C)c1cc(C)c(OCC(=O)O)c(C)c1 [Example 15.5, (4-{Ethyl-[4-methyl-2-(4-trifluoromethyl-phenyl)-thiazol-5-ylmethyl]-amino}-2,6-dimethyl-phenoxy)-acetic acid]			161 to 162 °C	
Cc1cc(N(C)Cc2oc(-c3ccc(C(F)(F)F)cc3)nc2C)cc(C)c1OCC(=O)O [Example 16.4, (2,6-Dimethyl-4-{methyl-[4-methyl-2-(4-trifluoromethyl-phenyl)-oxazol-5-ylmethyl]-amino}-phenoxy)-acetic acid]			122 to 123 °C	
Cc1cc(NCc2sc(-c3ccc(C(F)(F)F)cc3)nc2C)ccc1OCC(=O)O [Example 18.3, (2-Methyl-4-{[4-methyl-2-(4-trifluoromethyl-phenyl)-thiazol-5-ylmethyl]-amino}-phenoxy)-acetic acid]			201 to 203 °C (dec.)	
CCN(Cc1sc(-c2ccc(C(F)(F)F)cc2)nc1C)c1ccc(OCC(=O)O)c(C)c1 [Example 19.2, (4-{Ethyl-[4-methyl-2-(4-trifluoromethyl-phenyl)-thiazol-5-ylmethyl]-amino}-2-methyl-phenoxy)-acetic acid]			147 to 154 °C (dec.)	

Further lines, results first:

IC50 (PPARγ) [nM]	IC50 (PPARδ) [nM]	melting point	IC50 (PPARα) [nM]	Structure (SMILES)
> 10000	17.7	146 to 149 °C (dec.)	1750	Cc1cc(N(C)Cc2sc(-c3ccc(C(F)(F)F)cc3)nc2C)ccc1OCC(=O)O [Example 1.6, (2-Methyl-4-{methyl-[4-methyl-2-(4-trifluoromethyl-phenyl)-thiazol-5-ylmethyl]-amino}-phenoxy)-acetic acid]
> 10000	21	149 to 150 °C (dec.)	412	Cc1nc(-c2ccc(C(F)(F)F)cc2)sc1CN(C)c1ccc(OCC(=O)O)c(Cl)c1 [Example 4.6, (2-Chloro-4-{methyl-[4-methyl-2-(4-trifluoromethyl-phenyl)-thiazol-5-ylmethyl]-amino}-phenoxy)-acetic acid]
> 10000	49.8	113 to 114 °C	1060	Cc1nc(-c2ccc(C(F)(F)F)cc2)sc1CN(C)c1ccc(OCC(=O)O)c(F)c1 [Example 5.7, (2-Fluoro-4-{methyl-[4-methyl-2-(4-trifluoromethyl-phenyl)-thiazol-5-ylmethyl]-amino}-phenoxy)-acetic acid]
2210	10.1	142 to 143 °C (dec.)	308	CCc1cc(N(C)Cc2sc(-c3ccc(C(F)(F)F)cc3)nc2C)ccc1OCC(=O)O [Example 7.8, (2-Ethyl-4-{methyl-[4-methyl-2-(4-trifluoromethyl-phenyl)-thiazol-5-ylmethyl]-amino}-phenoxy)-acetic acid]
		129 to 131 °C (dec.)		COc1cc(N(C)Cc2sc(-c3ccc(C(F)(F)F)cc3)nc2C)ccc1OCC(=O)O [Example 8.7, (2-Methoxy-4-{methyl-[4-methyl-2-(4-trifluoromethyl-phenyl)-thiazol-5-ylmethyl]-amino}-phenoxy)-acetic acid]
		172.5 to 173 °C		Cc1nc(-c2ccc(C(F)(F)F)cc2)sc1CN(C)c1ccc(OCC(=O)O)c(I)c1 [Example 20.8, (2-Iodo-4-{methyl-[4-methyl-2-(4-trifluoromethyl-phenyl)-thiazol-5-ylmethyl]-amino}-phenoxy)-acetic acid]
